Results: ChEMBL document CHEMBL4422667, “Synthetic derivatives of the natural product 13-amino 2-desoxy-4-epi-pulchellin inhibit STAT3 signaling and induce G2/M arrest and death of colon cancer cells” (Bioorg Med Chem Lett, 2019)
≈ marks a conversion by molar mass, not a printed value.

Legend:
[1] = test system: HCT-116; experiment: cells; conditions: Homo sapiens, HCT-116, 72 h
Description: Cytotoxicity against human HCT116 cells assessed as reduction in cell viability after 72 hrs by MTT assay

[2] = test system: HT-29; experiment: cells; conditions: Homo sapiens, HT-29, 72 h
Description: Cytotoxicity against human HT-29 cells assessed as reduction in cell viability after 72 hrs by MTT assay

[3] = Aqueous solubility of compound at 25 degC; assay type: physicochemical; conditions: water

In the case of `C[C@@H]1C[C@@H]2OC(=O)[C@@H](CN3CCC(N(C)C)CC3)[C@H]2C[C@]2(C)[C@@H](O)CC[C@@H]12` (relative stereo), the IC50 [1] is reported as 12.2 µM.
For `C[C@@H]1C[C@@H]2OC(=O)[C@@H](CNCCCO)[C@H]2C[C@]2(C)[C@@H](O)CC[C@@H]12` (relative stereo), the IC50 [1] was > 30 µM.
With `CC(O)CNC[C@@H]1C(=O)O[C@H]2C[C@@H](C)[C@@H]3CC[C@H](O)[C@@]3(C)C[C@@H]21` (mixture of isomers) the IC50 [1] was > 30 µM.
With `C=C1C(=O)O[C@H]2C[C@@H](C)[C@@H]3CC[C@H](O)[C@@]3(C)C[C@H]12` [PSEUDOGUAIANOLIDE] the IC50 [2] was 3.37 µM, the solubility [3] was 200 µg/mL (≈ 799 µM) and the IC50 [1] was 4.43 µM.
With `C[C@@H]1C[C@@H]2OC(=O)[C@@H](CN3CCNCC3)[C@H]2C[C@]2(C)[C@@H](O)CC[C@@H]12` (relative stereo) the IC50 [1] was 15.5 µM.
`C[C@@H]1C[C@@H]2OC(=O)[C@@H](CN3CCOCC3)[C@H]2C[C@]2(C)[C@@H](O)CC[C@@H]12` (relative stereo) gave an IC50 [1] of 18.7 µM.
With `C[C@@H]1C[C@@H]2OC(=O)[C@@H](CN(C)C)[C@H]2C[C@]2(C)[C@@H](O)CC[C@@H]12` (relative stereo) the IC50 [2] was 3.31 µM and the IC50 [1] was 5.18 µM.
For `C=C1C(=O)O[C@@H]2C3O[C@]3(C)CC/C=C(\C)CC[C@@H]12` (stereo not given in full), the IC50 [2] was 3.38 µM and the IC50 [1] was 4.94 µM.
`COC(CNC[C@@H]1C(=O)O[C@H]2C[C@@H](C)[C@@H]3CC[C@H](O)[C@@]3(C)C[C@@H]21)OC` (relative stereo) showed an IC50 [1] of 27.5 µM.
For `C[C@@H]1C[C@@H]2OC(=O)[C@@H](CN3CCN(C)CC3)[C@H]2C[C@]2(C)[C@@H](O)CC[C@@H]12` (relative stereo), the IC50 [1] was > 30 µM.
Compound `C[C@@H]1C[C@@H]2OC(=O)[C@@H](CNCCN3CCCC3)[C@H]2C[C@]2(C)[C@@H](O)CC[C@@H]12` (relative stereo) has an IC50 [1] of 22.8 µM.
In the case of `CCN(C)C[C@@H]1C(=O)O[C@H]2C[C@@H](C)[C@@H]3CC[C@H](O)[C@@]3(C)C[C@@H]21` (relative stereo), the IC50 [2] is reported as 1.62 µM and the IC50 [1] is reported as 2.4 µM.
In the case of `CCCCCCNC[C@@H]1C(=O)O[C@H]2C[C@@H](C)[C@@H]3CC[C@H](O)[C@@]3(C)C[C@@H]21` (relative stereo), the IC50 [1] is reported as > 30 µM.
In the case of `CCCNC[C@@H]1C(=O)O[C@H]2C[C@@H](C)[C@@H]3CC[C@H](O)[C@@]3(C)C[C@@H]21` (relative stereo), the IC50 [1] is reported as > 30 µM.
Compound `C[C@@H]1C[C@@H]2OC(=O)[C@@H](CN3CCCCC3)[C@H]2C[C@]2(C)[C@@H](O)CC[C@@H]12` (relative stereo) has an IC50 [2] of 3.86 µM and an IC50 [1] of 8.39 µM.
`CCN(CC)C[C@@H]1C(=O)O[C@H]2C[C@@H](C)[C@@H]3CC[C@H](O)[C@@]3(C)C[C@@H]21` (relative stereo) gave an IC50 [2] of 3.45 µM and an IC50 [1] of 5.46 µM.
For `C[C@@H]1C[C@@H]2OC(=O)[C@@H](CNCCN(C)C)[C@H]2C[C@]2(C)[C@@H](O)CC[C@@H]12` (mixture of isomers), the IC50 [1] was > 30 µM.
In the case of `CNC[C@@H]1C(=O)O[C@H]2C[C@@H](C)[C@@H]3CC[C@H](O)[C@@]3(C)C[C@@H]21` (relative stereo), the IC50 [1] is reported as > 30 µM.
In the case of `C[C@@H]1C[C@@H]2OC(=O)[C@@H](CN3CCC(O)CC3)[C@H]2C[C@]2(C)[C@@H](O)CC[C@@H]12` (relative stereo), the IC50 [2] is reported as 3.19 µM and the IC50 [1] is reported as 5.36 µM.
With `C[C@@H]1C[C@@H]2OC(=O)[C@@H](CNCCCN(C)C)[C@H]2C[C@]2(C)[C@@H](O)CC[C@@H]12` (relative stereo) the IC50 [1] was > 30 µM.
For `CCCCNC[C@@H]1C(=O)O[C@H]2C[C@@H](C)[C@@H]3CC[C@H](O)[C@@]3(C)C[C@@H]21` (relative stereo), the IC50 [1] was > 30 µM.
Compound `CC(C)NC[C@@H]1C(=O)O[C@H]2C[C@@H](C)[C@@H]3CC[C@H](O)[C@@]3(C)C[C@@H]21` (relative stereo) has an IC50 [1] of 17.8 µM.
